Several values for one entry are separate records, joined by “and”; a condition that tells them apart may be missing. Equal entries are not always repeated.
System: 485368-065-R3-J5-PDC spheroids with HUVEC/MSC, viability
Assay: Anticancer human tumor 485368-065-R3-J5-PDC patient-derived pancreatic carcinoma cell line growth inhibition [RAS]
Conditions: for viability, T/C: stronger effect = lower value
Summary of the method: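 Tumour cells grown as complex spheroids with HUVEC endothelial cells and mesenchymal stem cells, treated with RAS pathway inhibitor combinations. Each agent spans half-log steps from near clinical Cmax, or 10 microM where Cmax is unknown.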

[1] = curve of first compound, second compound 0.0316 µM
[2] = curve of first compound, second compound 0.1 µM
[3] = curve of first compound, second compound 0.316 µM
[4] = curve of first compound, second compound 1 µM
[5] = second compound 0.0316 µM, first compound 0.0316 µM
[6] = second compound 0.0316 µM, first compound 0.1 µM
[7] = second compound 0.1 µM, first compound 0.0316 µM
[8] = second compound 0.1 µM, first compound 0.1 µM
[9] = second compound 0.316 µM, first compound 0.0316 µM
[10] = second compound 0.316 µM, first compound 0.1 µM
[11] = second compound 1 µM, first compound 0.0316 µM
[12] = second compound 1 µM, first compound 0.1 µM
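Also: spheroids exposed to agents for seven days before readout.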

## CC(C)n1nc(-c2ccc3oc(N)nc3c2)c2c(N)ncnc21 + C#Cc1c(F)ccc2cc(O)cc(-c3ncc4c(N5CC6CCC(C5)N6)nc(OCC56CCCN5CC(F)C6)nc4c3F)c12
[1]
  IC50: 0.0192 µM
[2]
  IC50: 0.0186 µM
[3]
  IC50: 0.0168 µM
[4]
  IC50: 0.0173 µM
Curve of first compound, second compound 3.16 µM
  IC50: 0.0115 µM
Curve of first compound, second compound 10 µM
  IC50: < 0.000316 µM
Second compound 0.0316 µM, first compound 0.000316 µM
  viability, T/C: 96.7%
Second compound 0.0316 µM, first compound 0.001 µM
  viability, T/C: 97%
Second compound 0.0316 µM, first compound 0.00316 µM
  viability, T/C: 76.4%
Second compound 0.0316 µM, first compound 0.01 µM
  viability, T/C: 65.5%
[5]
  viability, T/C: 39.3%
[6]
  viability, T/C: 18.7%
Second compound 0.1 µM, first compound 0.000316 µM
  viability, T/C: 97.3%
Second compound 0.1 µM, first compound 0.001 µM
  viability, T/C: 90.6%
Second compound 0.1 µM, first compound 0.00316 µM
  viability, T/C: 88.9%
Second compound 0.1 µM, first compound 0.01 µM
  viability, T/C: 65.7%
[7]
  viability, T/C: 36.4%
[8]
  viability, T/C: 18.7%
Second compound 0.316 µM, first compound 0.000316 µM
  viability, T/C: 99.8%
Second compound 0.316 µM, first compound 0.001 µM
  viability, T/C: 99.4%
Second compound 0.316 µM, first compound 0.00316 µM
  viability, T/C: 83.6%
Second compound 0.316 µM, first compound 0.01 µM
  viability, T/C: 61.8%
[9]
  viability, T/C: 36.1%
[10]
  viability, T/C: 18.7%
Second compound 1 µM, first compound 0.000316 µM
  viability, T/C: 101%
Second compound 1 µM, first compound 0.001 µM
  viability, T/C: 96.8%
Second compound 1 µM, first compound 0.00316 µM
  viability, T/C: 82.8%
Second compound 1 µM, first compound 0.01 µM
  viability, T/C: 63.6%
[11]
  viability, T/C: 35.7%
[12]
  viability, T/C: 17.8%
Second compound 3.16 µM, first compound 0.000316 µM
  viability, T/C: 71.3%
Second compound 3.16 µM, first compound 0.001 µM
  viability, T/C: 76.5%
Second compound 3.16 µM, first compound 0.00316 µM
  viability, T/C: 67.2%
Second compound 3.16 µM, first compound 0.01 µM
  viability, T/C: 52.9%
Second compound 3.16 µM, first compound 0.0316 µM
  viability, T/C: 28.9%
Second compound 3.16 µM, first compound 0.1 µM
  viability, T/C: 14.8%
Second compound 10 µM, first compound 0.000316 µM
  viability, T/C: 47.3%
Second compound 10 µM, first compound 0.001 µM
  viability, T/C: 36%
Second compound 10 µM, first compound 0.00316 µM
  viability, T/C: 32.2%
Second compound 10 µM, first compound 0.01 µM
  viability, T/C: 31.1%
Second compound 10 µM, first compound 0.0316 µM
  viability, T/C: 18.1%
Second compound 10 µM, first compound 0.1 µM
  viability, T/C: 13.1%

## CC1(O)CCCC1n1c(=O)c(C(F)F)cc2cnc(NC3CCN(S(C)(=O)=O)CC3)nc21 (stereo not drawn) + CCn1c(-c2cc(N3CCN(C)CC3)cnc2C(C)OC)c2c3cc(ccc31)-c1csc(n1)CC(NC(=O)C1CC1C)C(=O)N1CCCC(N1)C(=O)OCC(C)(C)C2
Curve of first compound, second compound 0.000949 µM
  IC50: < 0.0316 µM
Curve of first compound, second compound 0.003 µM
  IC50: < 0.0316 µM
Curve of first compound, second compound 0.00949 µM
  IC50: < 0.0316 µM
Curve of first compound, second compound 0.03 µM
  IC50: < 0.0316 µM
Curve of first compound, second compound 0.0949 µM
  IC50: < 0.0316 µM
Curve of first compound, second compound 0.3 µM
  IC50: < 0.0316 µM
Second compound 0.000949 µM, first compound 0.0316 µM
  viability, T/C: 32.3%
Second compound 0.000949 µM, first compound 0.1 µM
  viability, T/C: 24.5%
Second compound 0.000949 µM, first compound 0.316 µM
  viability, T/C: 18.9%
Second compound 0.000949 µM, first compound 1 µM
  viability, T/C: 21.9%
Second compound 0.000949 µM, first compound 3.16 µM
  viability, T/C: 27.9%
Second compound 0.000949 µM, first compound 10 µM
  viability, T/C: 14%
Second compound 0.003 µM, first compound 0.0316 µM
  viability, T/C: 18.5%
Second compound 0.003 µM, first compound 0.1 µM
  viability, T/C: 15.5%
Second compound 0.003 µM, first compound 0.316 µM
  viability, T/C: 13.4%
Second compound 0.003 µM, first compound 1 µM
  viability, T/C: 11.9%
Second compound 0.003 µM, first compound 3.16 µM
  viability, T/C: 14.7%
Second compound 0.003 µM, first compound 10 µM
  viability, T/C: 9.44%
Second compound 0.00949 µM, first compound 0.0316 µM
  viability, T/C: 14.6%
Second compound 0.00949 µM, first compound 0.1 µM
  viability, T/C: 12.9%
Second compound 0.00949 µM, first compound 0.316 µM
  viability, T/C: 11.6%
Second compound 0.00949 µM, first compound 1 µM
  viability, T/C: 10.3%
Second compound 0.00949 µM, first compound 3.16 µM
  viability, T/C: 11%
Second compound 0.00949 µM, first compound 10 µM
  viability, T/C: 8.01%
Second compound 0.03 µM, first compound 0.0316 µM
  viability, T/C: 11.8%
Second compound 0.03 µM, first compound 0.1 µM
  viability, T/C: 9.04%
Second compound 0.03 µM, first compound 0.316 µM
  viability, T/C: 9.94%
Second compound 0.03 µM, first compound 1 µM
  viability, T/C: 9.99%
Second compound 0.03 µM, first compound 3.16 µM
  viability, T/C: 9.98%
Second compound 0.03 µM, first compound 10 µM
  viability, T/C: 8.86%
Second compound 0.0949 µM, first compound 0.0316 µM
  viability, T/C: 7.96%
Second compound 0.0949 µM, first compound 0.1 µM
  viability, T/C: 8.33%
Second compound 0.0949 µM, first compound 0.316 µM
  viability, T/C: 7.56%
Second compound 0.0949 µM, first compound 1 µM
  viability, T/C: 9.28%
Second compound 0.0949 µM, first compound 3.16 µM
  viability, T/C: 11.6%
Second compound 0.0949 µM, first compound 10 µM
  viability, T/C: 8.42%
Second compound 0.3 µM, first compound 0.0316 µM
  viability, T/C: 7.72%
Second compound 0.3 µM, first compound 0.1 µM
  viability, T/C: 7.59%
Second compound 0.3 µM, first compound 0.316 µM
  viability, T/C: 7.36%
Second compound 0.3 µM, first compound 1 µM
  viability, T/C: 7.64%
Second compound 0.3 µM, first compound 3.16 µM
  viability, T/C: 9.08%
Second compound 0.3 µM, first compound 10 µM
  viability, T/C: 7.54%

## Nc1ccn(C2OC(CO)C(O)C2(F)F)c(=O)n1 (stereo not drawn)
Compound 0.00316 µM
  viability, T/C: 100% [middle of 4 runs]
Compound 0.01 µM
  viability, T/C: 29.2% [middle of 4 runs]
Compound 0.0316 µM
  viability, T/C: 10.9% [middle of 4 runs]
Compound 0.1 µM
  viability, T/C: 10.5% [middle of 4 runs]
Compound 0.316 µM
  viability, T/C: 12.1% [middle of 4 runs]
Compound 1 µM
  viability, T/C: 11.3% [middle of 4 runs]
Curve of compound
  IC50: 0.00713 µM and 0.00664 µM and 0.00675 µM

## Cc1nc(N2CCC3(CC2)COC(C)C3N)c(CO)nc1Sc1ccnc(N)c1Cl (stereo not drawn) + C=CC(=O)N1CCN(c2nc(OCC3CCCN3C)nc3c(F)c(-c4nc(N)cc(C)c4C(F)(F)F)c(Cl)cc23)C(C)C1
Curve of first compound, second compound 0.00316 µM
  IC50: 7.82 µM
Curve of first compound, second compound 0.01 µM
  IC50: 7.83 µM
[1]
  IC50: > 10 µM
[2]
  IC50: > 10 µM
[3]
  IC50: > 10 µM
[4]
  IC50: > 10 µM
Second compound 0.00316 µM, first compound 0.0316 µM
  viability, T/C: 101%
Second compound 0.00316 µM, first compound 0.1 µM
  viability, T/C: 84.3%
Second compound 0.00316 µM, first compound 0.316 µM
  viability, T/C: 83.6%
Second compound 0.00316 µM, first compound 1 µM
  viability, T/C: 68.2%
Second compound 0.00316 µM, first compound 3.16 µM
  viability, T/C: 57.7%
Second compound 0.00316 µM, first compound 10 µM
  viability, T/C: 47.6%
Second compound 0.01 µM, first compound 0.0316 µM
  viability, T/C: 91.7%
Second compound 0.01 µM, first compound 0.1 µM
  viability, T/C: 89.4%
Second compound 0.01 µM, first compound 0.316 µM
  viability, T/C: 85.1%
Second compound 0.01 µM, first compound 1 µM
  viability, T/C: 72.8%
Second compound 0.01 µM, first compound 3.16 µM
  viability, T/C: 64.6%
Second compound 0.01 µM, first compound 10 µM
  viability, T/C: 45.9%
[5]
  viability, T/C: 97.4%
[6]
  viability, T/C: 93.1%
Second compound 0.0316 µM, first compound 0.316 µM
  viability, T/C: 66.8%
Second compound 0.0316 µM, first compound 1 µM
  viability, T/C: 61.5%
Second compound 0.0316 µM, first compound 3.16 µM
  viability, T/C: 63.1%
Second compound 0.0316 µM, first compound 10 µM
  viability, T/C: 61.7%
[7]
  viability, T/C: 86.4%
[8]
  viability, T/C: 81.7%
Second compound 0.1 µM, first compound 0.316 µM
  viability, T/C: 75.6%
Second compound 0.1 µM, first compound 1 µM
  viability, T/C: 75.6%
Second compound 0.1 µM, first compound 3.16 µM
  viability, T/C: 70.7%
Second compound 0.1 µM, first compound 10 µM
  viability, T/C: 53.1%
[9]
  viability, T/C: 98.5%
[10]
  viability, T/C: 89.7%
Second compound 0.316 µM, first compound 0.316 µM
  viability, T/C: 79.9%
Second compound 0.316 µM, first compound 1 µM
  viability, T/C: 77%
Second compound 0.316 µM, first compound 3.16 µM
  viability, T/C: 65.5%
Second compound 0.316 µM, first compound 10 µM
  viability, T/C: 51.2%
[11]
  viability, T/C: 97.3%
[12]
  viability, T/C: 95.8%
Second compound 1 µM, first compound 0.316 µM
  viability, T/C: 80.3%
Second compound 1 µM, first compound 1 µM
  viability, T/C: 73.1%
Second compound 1 µM, first compound 3.16 µM
  viability, T/C: 58.7%
Second compound 1 µM, first compound 10 µM
  viability, T/C: 50.1%
